Patent US20130136778A1, “PTEROSTILBENE (PTER) FOR USE IN THE PREVENTION AND/OR TREATMENT OF SKIN DISEASES, DAMAGES OR INJURIES” (GREEN MOLECULAR, S.L., priority 2009, published 2013)

System: SKH-1 mice
Test: Experimental atopic dermatitis induced by TNCB
Type: in vivo
Protocol: Also, on certain specific days prior to sacrificing them, the mice were assessed by a veterinarian who analyzed the skin lesions, qualifying them in function of: • Erythema: redness of the skin conditioned by inflammation due to the excess of blood irrigation by the dilation of blood vessels. • Excoriation: or irritation of the skin with flaky aspect, increase in the descaling of the skin which could result in hyperkeratosis. • The depth of the lesion that could reach the dermis producing soars or ulcers. Each variable was evaluated on a scale of 0-4, 0, for none; 1, for mild; 2, for moderate; 3, marked; and 4, very marked. The addition of the 3 values of each mouse indicated the degree of inflammation. […] Furthermore, the continuous administration of TNCB ointment increased the production of T-lymphocytes, mastocytes and IgE in the serum, as it occurs among human patients with atopic dermatitis. […] Nonetheless, the objective evaluation of these characteristics is complex, and the measuring of the loss of transepidermal water (PTEA or TEWL) assessed through the Tewameter TM 210 system (CK electronics, Germany) is considered an indicator of the functions of cutaneous “barriers” (g/h/cm2). […] TEWL readings were performed continuously until the metrics were stabilized, which can produce between 30-60 seconds of readings.

## COc1cc(/C=C/c2ccc(O)cc2)cc(OC)c1 [PTER, 3,5-dimethoxy-4′-hydroxy-trans-resveratrol]
FIG. 19, 10 μmoles polyphenols, 0.5 μmoles dexamethasone 24 h before 1% TNCB
  increase in the skinfold 24 hours after the first administration of TNCB: decreased their inflammatory effect due to the TNCB agent
TNCB model, up to 4 applications of TNCB
  index of lesions (macroscopic assessment): produced less serious lesions than with the use of dexamethasone or with respect to the lack of treatment
